Results from ChEMBL document CHEMBL4814073, “Ring-opening of five-membered heterocycles conjugated 4-isopropylresorcinol scaffold-based benzamides as HSP90 inhibitors suppressing tumor growth in vitro and in vivo” (Eur J Med Chem, 2021).
The source made the active and inactive calls. No cut-off for these calls is given here.

Legend:
[1] = Apparent permeability across basolateral to apical in human Caco2 cells by LC-MS/MS analysis; type: ADME, cell-based; settings: Caco-2, read-out: permeability
Heat shock protein HSP90 [2] = target: T1, Heat shock protein HSP90 (Homo sapiens, UniProt P07900+P08238); test: Inhibition of HSP90 in human A549 cells assessed as downregulation of Akt expression at 3 uM by immunoblot analysis; type: cell-based; settings: time hrs <=24, TDE = time-dependent effect
[3] = Tmax in Sprague-Dawley rat at 20 mg/kg, po measured after 1 hrs by LC-MS/MS analysis; type: ADME, organism-based; settings: in vivo
Heat shock protein HSP90 [4] = target: T1, Heat shock protein HSP90; test: Inhibition of HSP90 in human A549 cells assessed as downregulation of Akt expression incubated for 24 hrs by immunoblot analysis; type: cell-based; settings: dose microM <=3, time 24.0 hrs
A549 [5] = test: Induction of apoptosis in human A549 cells assessed as increase in PARP cleavage at 0.3 to 3 uM measured after 18 hrs by western blot analysis; type: functional, cell-based; settings: dose 0.3-3 µM
NCI-H1975 = test: Antitumor activity against human NCI-H1975 cells xenografted in BALB/c mouse assessed as tumor growth inhibition at 50 mg/kg, po treated daily relative to control; settings: read-out: TGI
A549 [6] = test: Induction of cell cycle arrest in human A549 cells assessed as M stage arrest by measuring upregulation of p-histone H3 (Ser10) expression at 0.3 uM incubated for 24 hrs by Western blot analysis; type: functional, cell-based
[7] = Metabolic stability in Beagle dog hepatocytes assessed as Intrinsic clearance by LC-MS/MS analysis; type: ADME, cell-based, Canis lupus familiaris, Hepatocyte
CYP1A2 = target: T2, CYP1A2 (Homo sapiens, UniProt P05177); test: Inhibition of CYP1A2 in human liver microsomes using phenacetin as substrate at 50 uM by LC-MS/MS analysis; type: ADME; settings: probe phenacetin
T2 sequence (P05177 whole entry): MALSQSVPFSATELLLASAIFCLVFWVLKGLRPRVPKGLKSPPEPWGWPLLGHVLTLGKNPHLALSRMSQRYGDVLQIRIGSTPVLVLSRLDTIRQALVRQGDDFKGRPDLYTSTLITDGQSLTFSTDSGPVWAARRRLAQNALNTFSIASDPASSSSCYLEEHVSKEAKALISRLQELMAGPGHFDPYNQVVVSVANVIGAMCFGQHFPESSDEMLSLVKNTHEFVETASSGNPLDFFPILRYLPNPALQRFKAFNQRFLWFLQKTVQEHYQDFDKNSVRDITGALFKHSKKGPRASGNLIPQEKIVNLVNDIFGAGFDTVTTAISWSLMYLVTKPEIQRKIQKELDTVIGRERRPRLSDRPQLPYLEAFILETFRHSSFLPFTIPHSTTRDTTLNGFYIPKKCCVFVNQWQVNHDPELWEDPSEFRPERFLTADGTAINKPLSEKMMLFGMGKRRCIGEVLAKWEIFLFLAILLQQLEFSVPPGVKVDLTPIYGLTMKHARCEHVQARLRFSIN

With CCN(C(=O)c1cc(C(C)C)c(O)cc1O)c1cccnc1 the Papp B→A [1] was 30.6 ×10⁻⁶ cm/s, the inhibition (Heat shock protein HSP90 [2]) was “Tde” and the Tmax [3] was 15 min. The inhibition (Heat shock protein HSP90 [4]) was “Dose-Dependent Effect”, the Activity (A549 [5]) was “Active” and the inhibition in vivo at 50 mg/kg (NCI-H1975) was 34.3%. For the same compound, the Activity (A549 [6]) was “Active”, the CLint [7] was 119 mL/min/kg and the inhibition at 50 µM (CYP1A2) was 50.6%.
